Assay results taken from patent publication US7098237B1, “Remedies for ischemia reperfusion injury” (Shionogi & Co., Ltd., priority 1998, dated 2006).

What was measured:
[1] = test system: Total Hepatic Vascular Exclusion Model (liver ischemia reperfusion); test: Hepatic function related factors (AST, ALT, LDH) by administration before ischemia, Total Hepatic Vascular Exclusion Model; assay type: in vivo, Beagle dogs; settings: 0.2 mg/kg/hr continuous i.v. for one hour before ischemia; 2 h ischemia then reperfusion; peripheral artery blood
Description: (§1) Beagle dogs (female, 10 to 12 kg) are used for experimental animals. Under the control of general anesthesia by inserting a tube into the trachea, a bypass is formed between the portal vein, femoral vein and external jugular vein. […] An auxiliary circulation is applied during this two hour's operation. Ischemia is continued for two hours, and reperfusion of the blood is resumed by releasing the clump. Various physiological changes are confirmed under laparotomy until three hours after reperfusion and thereafter abdomen is sutured (the method for maintaining anesthesia during this period follows the existing protocol, and fluctuation of the blood pressure and the like are not corrected by different anesthetic methods). Survival at two weeks after the surgery is confirmed.
The test compound is administered before and after warm ischemia. The compound is administered by intravenous injection.
Various factors related to the hepatic function and blood flow of hepatic tissues were measured by sampling over time from the peripheral artery and hepatic vein.
as §1, with “bypass was” for “bypass is”, “methods). The blood is collected from the peripheral artery to measure AST, ALT and LDH as indexes of the hepatic functions.” for “methods).”
The experimental group is divided into two groups with and without administration of the compound (1). […]

[2] = test system: Total Hepatic Vascular Exclusion Model (liver ischemia reperfusion); test: Blood flow in the hepatic tissue by administration before ischemia (laser Doppler method); assay type: in vivo, Beagle dogs; settings: 0.2 mg/kg/hr continuous i.v. for one hour before ischemia
Description: as §1, with “bypass was” for “bypass is”, “methods). The blood is collected from the peripheral artery to measure AST, ALT and LDH as indexes of the hepatic functions.” for “methods).”
A dosage of 0.2 mg/kg/hr of the compound (1) was administered by continuous intravenous injection through the peripheral vein during the period of one hour from before ischemia to the occurrence of ischemia.
(§2) The blood flow in the hepatic tissue was measured using a laser Doppler method.

[3] = test system: Total Hepatic Vascular Exclusion Model (liver ischemia reperfusion); test: Hepatic function related factors (AST, ALT, LDH) by administration after ischemia; assay type: in vivo, Beagle dogs; settings: 0.2 mg/kg/hr continuous i.v. for one hour from 20 minutes before reperfusion to 40 minutes after reperfusion
Description: as §1, with “bypass was” for “bypass is”, “methods). The blood is collected from the peripheral artery to measure AST, ALT and LDH as indexes of the hepatic functions.” for “methods).”
(§3) The experiments were carried out by the same method as in Example 1. A dosage of 0.2 mg/kg/hr of the compound (1) was administered by continuous intravenous injection through the peripheral vein for one hour from 20 minutes before blood reperfusion to 40 minutes after the reperfusion.

[4] = test system: Total Hepatic Vascular Exclusion Model (liver ischemia reperfusion); test: Blood flow in the hepatic tissue by administration after ischemia (laser Doppler method); assay type: in vivo, Beagle dogs; settings: 0.2 mg/kg/hr continuous i.v. for one hour from 20 minutes before reperfusion to 40 minutes after reperfusion
Experimental: as §2, §3
The blood flow in the hepatic tissue was measured by the same method as in Examples 2 and 3.

[5] = test system: lung injury after small intestine ischemia reperfusion; settings: Am. J. Physiol., 268: G397, 1995; cited from earlier work

SMILES	ALT value compared with the control group (FIG. 2) [1]	AST value compared with the control group (FIG. 1) [1]	LDH value compared with the control group (FIG. 3) [1]	blood flow in the liver after reperfusion compared with the control group (FIG. 4) [2]	ALT value compared with the control group (FIG. 6) [3]	AST value compared with the control group (FIG. 5) [3]	LDH value compared with the control group (FIG. 7) [3]	blood flow after reperfusion compared with the control group (FIG. 8) [4]	occurrence of lung injury accompanied by reperfusion of the small intestine [5]
CCc1c(C(=O)C(N)=O)c2c(OCC(=O)[O-])cc(C)cc2n1Cc1ccccc1.[Na+] [compound (1)]	significantly suppressed	significantly suppressed	significantly suppressed	significantly increased	significantly suppressed	significantly suppressed	significantly suppressed	significantly increased	–
CCN(CC)CCCC(C)Nc1c2ccc(Cl)cc2nc2ccc(OC)cc12 (stereo not drawn) [quinacrine]	–	–	–	–	–	–	–	–	can be prevented
